Experimental data as given in publication PMC2653189 (PLoS ONE, 2009).

Assays:
Format in all cases: cell-based
[1] = test system: MCF7; experiment: Breast cancer cell line apoptosis assay (nucleosome ELISA); conditions: Homo sapiens, 24 hr, read-out: EC50 apoptosis induction
Method: (§1) Human breast carcinoma cell lines MDA-MB-468, MDA-MB-231, MBA-MD-435 and MCF7 were kindly provided by Dr. Powel H. Brown (Breast Cancer Center, Baylor College of Medicine). Breast cancer cell line, MDA-MB-453 was kindly provided by Dr. Shou Jiang (Breast Cancer Center, Baylor College of Medicine). All cell lines were grown in DMEM medium supplemented with 10% fetal bovine serum (FBS), 25,000 units penicillin G, 25,000 µg streptomycin, and 131.4 mg L-Glutamine and cultured in the incubator under the condition of 95% air, 5% CO2 at 37°C [33]. Cells were seeded at 2,500 cells/cm^2 into 12-well plates. At 80% confluency, cells were washed with PBS and supplemented with fresh medium containing compound or the topoisomerase I-inhibitor, camptothecin, at 0, 0.1, 0.3, 1, 3, 10, 30, 100, 300 µM. At 24 hours, treatment was terminated by removing the medium from each well. Cells were lysed with cell lysis buffer (600 µl for 30 minutes at 25°C). Cell lysate (200 µl) was centrifuged at 200 g for 10 minutes and 20 µl of each supernatant was assayed for nucleosomes using the Cell Death Detection ELISA (Roche Applied Science) as described by the manufacturer. The percent maximum nucleosome level was calculated by dividing the nucleosome level by the maximum nucleosome level achieved in the assay and multiplying by 100. This value was plotted as a function of the log compound concentration and the best-fitting curve and EC50 value determined using 4-Parameter Logistic Model/Dose Response/XLfit 4.2, IDBS software.
(§2) Figure 5 Apoptosis induction of breast cancer cell lines by compounds; selective apoptosis of cell lines that are Stat3 dependent. MDA-MB-468 (panel A), MDA-MB-231 (panel B), MDA-MB-435 (panel C), MCF7 (panel D) and MDA-MB-453 (panel E) were seeded in 12-well plates, grown overnight then treated with the indicated compound for 24 hr. Cells were centrifuged and the supernatants assayed for nucleosome levels by ELISA. The percent maximum nucleosome level was calculated (nucleosome level ÷ maximum nucleosome level achieved in the assay ×100) and plotted as a function of the log compound concentration. The best-fitting curve was determined using 4-ParameterLogistic Model/Dose Response One Site/XLfit 4.2, IDBS software and was used to determine the EC50 value (Table 3).

[2] = test system: MDA-MB-231; experiment: as above; conditions: Homo sapiens, 24 hr, read-out: EC50 apoptosis induction
Method: as §1, §2

[3] = test system: MDA-MB-435; experiment: as above; conditions: Homo sapiens, 24 hr, read-out: EC50 apoptosis induction
Method: as §1, §2

[4] = test system: MDA-MB-453; experiment: as above; conditions: Homo sapiens, 24 hr, read-out: EC50 apoptosis induction
Method: as §1, §2

[5] = test system: MDA-MB-468; experiment: as above; conditions: Homo sapiens, 24 hr, read-out: EC50 apoptosis induction
Method: as §1, §2

[6] = test system: breast cancer cell lines with constitutive Stat3 activity—MDA-MB-468, MDA-MB-231 and MDA-MB-435; experiment: Apoptosis assay, summary over the cell lines with constitutive Stat3 activity; conditions: Homo sapiens, 24 hr, read-out: EC50 apoptosis induction, range over three cell lines
Method: as §1, with “100.” for “100. This value was plotted as a function of the log compound concentration and the best-fitting curve and EC50 value determined using 4-Parameter Logistic Model/Dose Response/XLfit 4.2, IDBS software.”
as §2, with “MDA-MB-468” for “Figure 5 Apoptosis induction of breast cancer cell lines by compounds; selective apoptosis of cell lines that are Stat3 dependent. MDA-MB-468”

O=C(O)c1ccc(C=CC(=O)c2ccc3c(c2)OCCO3)cc1 [Cpd3, 4-[3-(2,3-dihydro-1,4-benzodioxin-6-yl)-3-oxo-1-propen-1-yl]benzoic acid]
EC50 [1]: > 300 µM
EC50 [2]: 26.9 µM
EC50 [3]: 16.5 µM
EC50 [4]: > 300 µM
EC50 [5]: 2.28 µM
EC50 [6]: 2.3 to 26.9 µM
